Assay results reported in patent US20090042917A1, “Aminopyrimidine Derivative and Plant Disease Control Agent for Agricultural or Horticultural Use” (KUMIAI CHEMICAL INDUSTRY CO., LTD., priority 2006, published 2009).

Experiments:
Pyricularia oryzae = assay: whole plant or invertebrate; assay type: in vivo; conditions: for pest or weed control at 500 ppm: Pyricularia oryzae, 120 h, read-out: control level
[1] = system: Pseudoperonospora cubensis; assay: Test on protective effect against Pseudoperonospora cubensis (cucumber seedlings); assay type: in vivo; conditions: 500 ppm active ingredient sprayed on cucumber (Sagami-Hanziro) seedlings before inoculation, 6 days after; for pest or weed control at 500 ppm: Pseudoperonospora cubensis, 144 h, read-out: control level
Protocol: 4 cucumber seeds (variety: Sagami-Hanziro) were sown in each plastic cup having a diameter of 5.5 cm and allowed to grow for 7 days in a greenhouse. […] After air drying, the plants were inoculated by spraying with a conidia suspension of Pseudoperonospora cubensis. The inoculated plants were immediately put in a moist chamber at 20° C. (relative humidity of 100%) for 24 hours. Thereafter, the plants were transferred to a greenhouse. 6 days after, disease development indexes of cotyledons for total pots were examined according to the standard described below, a disease severity was determined using an expression shown below and a control level (%) was calculated using another expression shown below. The standard for disease development index is as follows: [table] Hereinbelow, an expression to calculate a disease severity (%) is shown. [formula] Hereinbelow, an expression to calculate a control level (%) is shown. [formula]

Septoria nodorum = assay: Test on protective effect against Septoria nodorum (wheat); assay type: in vivo; conditions: 500 ppm active ingredient sprayed on wheat (Norin No. 61) at two-leaf stage before inoculation, 9 days after; for pest or weed control at 500 ppm: Parastagonospora nodorum, 216 h, read-out: control level
Protocol: 10 wheat seeds (variety: Norin No. 61) were sown in each plastic cup having a diameter of 5.5 cm and allowed to grow for 9 days in a greenhouse. […] After air drying, the plants were inoculated by spraying with a pycnidiospore suspension of Septoria nodorum. The inoculated plants were immediately put in a moist chamber at 25° C. (relative humidity of 100%) for 48 hours. Thereafter, the plants were transferred to a greenhouse. 9 days after, disease development indexes of first leaves for total pots were examined according to the standard in Test Example 3, a disease severity was determined using the expression in Test Example 3 and a control level (%) was calculated using the expression in Test Example 3.

Botrytis cinerea = assay: Test on protective effect against Botrytis cinerea (cucumber seedlings); assay type: in vivo; conditions: 500 ppm active ingredient sprayed on cucumber (Sagami-Hanziro) seedlings before inoculation; 2 days after
Protocol: 4 cucumber seeds (variety: Sagami-Hanziro) were sown in each plastic cup having a diameter of 5.5 cm and allowed to grow for 7 days in a greenhouse. […] After air drying, a sterilized paper disc was immersed in a conidia suspension of Botrytis cinerea and laid on an upper side of a cucumber cotyledon for innoculation and thereafter cared in a moist chamber at 20° C.

Rhizoctonia solani = assay: Test on protective effect against Rhizoctonia solani (rice pot test); assay type: in vivo; conditions: 500 ppm active ingredient sprayed on rice (Kinmaze) at 2.5 to 3-leaf stage before inoculation, 5 days after inoculation; for pest or weed control at 500 ppm: Rhizoctonia solani, 120 h, read-out: control level
Protocol: 15 rice seeds (variety: Kinmaze) were sown in each clay pot having a diameter of 7.5 cm and allowed to grow for 3 weeks in a greenhouse. […] After air drying, the plants were inoculated by uniformly covering the surface of the soil with Rhizoctonia solani cultured in a rice-husk bran medium and incubated in a moist chamber at 30° C. […] The standard for disease development index is as follows: [table] Hereinbelow, an expression to calculate a control level (%) is shown. [formula]

Erysiphe graminis = assay: Test on protective effect against Erysiphe graminis (wheat); assay type: in vivo; conditions: Blumeria graminis, 168 h; 500 ppm active ingredient sprayed on wheat (Norin No. 61) at 1.5 to 2-leaf stage before inoculation; 7 days after; read-out: control level
Protocol: 10 wheat seeds (variety: Norin No. 61) were sown in each plastic cup having a diameter of 5.5 cm and allowed to grow for 8 days in a greenhouse. […] After air drying, the plants were inoculated by equally sprinkling with conidia of Erysiphe graminis by using a midget duster or the like for innoculation and then incubated in a greenhouse until a development of disease. 7 days after, disease development indexes of first leaves for total pots were examined according to the standard in Test Example 3, a disease severity was determined using the expression in Test Example 3 and a control level (%) was calculated using the expression in Test Example 3.

Clc1nc(-n2cccn2)nc(N2CCCC2)c1Cc1ccccc1 [Comparative Compound 1, reference compound]
control level (Pyricularia oryzae; 500 ppm active ingredient sprayed on rice (Aichi Asahi) at four-leaf stage before inoculation, lesions counted 5 days after inoculation): did not exhibit a control effect
control level [1]: did not exhibit a control effect
control level (Septoria nodorum): did not exhibit a control effect
control level (Botrytis cinerea): did not exhibit a control effect
control level (Rhizoctonia solani): did not exhibit a control effect

Cc1cc(C)n(-c2nc(C)c(C)c(NN)n2)n1 [Comparative Compound 2, reference compound]
pest or weed control at 500 ppm (Septoria nodorum): 75%
control level (Botrytis cinerea): 25%
pest or weed control at 500 ppm (Rhizoctonia solani): 50%

CCC(C)c1c(NC(C)C)nc(-n2cccn2)nc1C(F)(F)F (centres unmarked) [Compound No. 0240, 5-sec-butyl-N-(1-methylethyl)-2-(1H-pyrazol-1-yl)-6-trifluoromethylpyrimidine-4-amine]
pest or weed control at 500 ppm (Pyricularia oryzae): 100%
pest or weed control at 500 ppm (Erysiphe graminis): 100%
melting point: 85 to 87 °C

CCC(C)c1c(F)nc(-n2cccn2)nc1NCC(F)(F)F (centres unmarked) [Compound No. 0349, 5-sec-butyl-6-fluoro-2-(1H-pyrazol-1-yl)-N-(2,2,2-trifluoroethyl)pyrimidine-4-amine]
pest or weed control at 500 ppm (Pyricularia oryzae): 100%
pest or weed control at 500 ppm [1]: 100%
pest or weed control at 500 ppm (Erysiphe graminis): 100%
pest or weed control at 500 ppm (Septoria nodorum): 100%
melting point: 132 to 134 °C
pest or weed control at 500 ppm (Rhizoctonia solani): 100%

CCC(C)c1c(Cl)nc(-n2cccn2)nc1NCC(F)(F)F (centres unmarked) [Compound No. 0350, 5-sec-butyl-6-chloro-2-(1H-pyrazol-1-yl)-N-(2,2,2-trifluoroethyl)pyrimidine-4-amine]
pest or weed control at 500 ppm (Pyricularia oryzae): 100%
pest or weed control at 500 ppm [1]: 100%
pest or weed control at 500 ppm (Erysiphe graminis): 100%
pest or weed control at 500 ppm (Septoria nodorum): 100%
melting point: 137 to 139 °C
pest or weed control at 500 ppm (Rhizoctonia solani): 100%

CCC(C)c1c(Br)nc(-n2cccn2)nc1NCC(F)(F)F (centres unmarked) [Compound No. 0351, 6-bromo-5-sec-butyl-2-(1H-pyrazol-1-yl)-N-(2,2,2-trifluoroethyl)pyrimidine-4-amine]
pest or weed control at 500 ppm (Pyricularia oryzae): 100%
pest or weed control at 500 ppm [1]: 100%
pest or weed control at 500 ppm (Erysiphe graminis): 100%
pest or weed control at 500 ppm (Septoria nodorum): 100%
melting point: 136 to 139 °C
pest or weed control at 500 ppm (Rhizoctonia solani): 100%

CCC(C)c1c(O)nc(-n2cccn2)nc1NCC(F)(F)F (centres unmarked) [Compound No. 0353, 5-sec-butyl-2-(1H-pyrazol-1-yl)-6-(2,2,2-trifluoroethylamino)pyrimidin-4-ol]
melting point: 141 to 143 °C

CCC(C)c1c(NCC(F)(F)F)nc(-n2cccn2)nc1OC(F)F (centres unmarked) [Compound No. 0358, 5-sec-butyl-6-difluoromethoxy-2-(1H-pyrazol-1-yl)-N-(2,2,2-trifluoroethyl)pyrimidine-4-amine]
pest or weed control at 500 ppm (Pyricularia oryzae): 100%
pest or weed control at 500 ppm [1]: 100%
pest or weed control at 500 ppm (Erysiphe graminis): 100%
melting point: 94 to 95 °C

CCC(C)c1c(NCC(F)(F)F)nc(-n2cccn2)nc1SC (centres unmarked) [Compound No. 0361, 5-sec-butyl-6-methylthio-2-(1H-pyrazol-1-yl)-N-(2,2,2-trifluoroethyl)pyrimidine-4-amine]
pest or weed control at 500 ppm (Pyricularia oryzae): 100%
pest or weed control at 500 ppm [1]: 100%
pest or weed control at 500 ppm (Erysiphe graminis): 100%
pest or weed control at 500 ppm (Rhizoctonia solani): 100%

CCC(C)c1c(NCC(F)(F)F)nc(-n2cccn2)nc1S(C)(=O)=O (centres unmarked) [Compound No. 0363, 5-sec-butyl-6-methylsulfonyl-2-(1H-pyrazol-1-yl)-N-(2,2,2-trifluoroethyl)pyrimidine-4-amine]
melting point: 52 to 55 °C

CCC(C)c1c(NCC(F)(F)F)nc(-n2cccn2)nc1N(CC)CC (centres unmarked) [Compound No. 0371, 5-sec-butyl-N^4, N^4-diethyl-2-(1H-pyrazol-1-yl)-N^6-(2,2,2-trifluoroethyl)pyrimidine-4,6-diamine]
pest or weed control at 500 ppm [1]: 100%
pest or weed control at 500 ppm (Erysiphe graminis): 100%

CCc1nc(-n2cccn2)nc(NCC(F)(F)F)c1C(C)CC (centres unmarked) [Compound No. 0385, 5-sec-butyl-6-ethyl-2-(1H-pyrazol-1-yl)-N-(2,2,2-trifluoroethyl)pyrimidine-4-amine]
pest or weed control at 500 ppm (Pyricularia oryzae): 100%
pest or weed control at 500 ppm [1]: 100%
pest or weed control at 500 ppm (Erysiphe graminis): 100%
pest or weed control at 500 ppm (Septoria nodorum): 100%
melting point: 89 to 90 °C

CCC(C)c1c(NCC(F)(F)F)nc(-n2cccn2)nc1C1CC1 (centres unmarked) [Compound No. 0387, 5-sec-butyl-6-cyclopropyl-2-(1H-pyrazol-1-yl)-N-(2,2,2-trifluoroethyl)pyrimidine-4-amine]
pest or weed control at 500 ppm (Pyricularia oryzae): 100%
pest or weed control at 500 ppm [1]: 100%
pest or weed control at 500 ppm (Erysiphe graminis): 100%
melting point: 84 to 85 °C
pest or weed control at 500 ppm (Rhizoctonia solani): 100%

CCC(C)c1c(Cl)nc(-n2cc(Cl)cn2)nc1NCC(F)(F)F (centres unmarked) [Compound No. 0434, 5-sec-butyl-6-chloro-2-(4-chloro-1H-pyrazol-1-yl)-N-(2,2,2-trifluoroethyl)pyrimidine-4-amine]
pest or weed control at 500 ppm (Pyricularia oryzae): 100%
pest or weed control at 500 ppm (Erysiphe graminis): 100%
melting point: 173 to 174 °C
pest or weed control at 500 ppm (Rhizoctonia solani): 100%

CCOC(=O)c1cnn(-c2nc(Cl)c(C(C)CC)c(NCC(F)(F)F)n2)c1N (centres unmarked) [Compound No. 0601, ethyl 5-amino-1-[5-sec-butyl-4-chloro-6-(2,2,2-trifluoroethylamino)pyrimidin-2-yl]-1H-pyrazol-4-carboxylate]
melting point: 173 to 174 °C

CCC(C)c1cnc(-n2cccn2)nc1N1CCC(C)CC1 (centres unmarked) [Compound No. 1190, 5-sec-butyl-4-(4-methylpiperidin-1-yl)-2-(1H-pyrazol-1-yl)pyrimidine]
pest or weed control at 500 ppm [1]: 100%
pest or weed control at 500 ppm (Erysiphe graminis): 100%
pest or weed control at 500 ppm (Septoria nodorum): 100%
pest or weed control at 500 ppm (Rhizoctonia solani): 100%

CCC(C)c1c(Cl)nc(-n2cccn2)nc1N1CCC(C)CC1 (centres unmarked) [Compound No. 1192, 5-sec-butyl-4-chloro-6-(4-methylpiperidin-1-yl)-2-(1H-pyrazol-1-yl)pyrimidine]
pest or weed control at 500 ppm (Erysiphe graminis): 100%
pest or weed control at 500 ppm (Rhizoctonia solani): 100%

CCC(C)c1c(SC)nc(-n2cccn2)nc1N1CCC(C)CC1 (centres unmarked) [Compound No. 1204, 5-sec-butyl-6-(4-methylpiperidin-1-yl)-4-methylthio-2-(1H-pyrazol-1-yl)pyrimidine]
pest or weed control at 500 ppm (Erysiphe graminis): 100%
melting point: 69 to 71 °C
pest or weed control at 500 ppm (Rhizoctonia solani): 100%

CCC(C)c1c(C#N)nc(-n2cccn2)nc1N1CCC(C)CC1 (centres unmarked) [Compound No. 1215, 5-sec-butyl-6-(4-methylpiperidin-1-yl)-2-(1H-pyrazol-1-yl)pyrimidine-4-carbonitrile]
pest or weed control at 500 ppm [1]: 100%
pest or weed control at 500 ppm (Erysiphe graminis): 100%
pest or weed control at 500 ppm (Rhizoctonia solani): 100%

CCC(C)c1c(C)nc(-n2cccn2)nc1N1CCC(C)CC1 (centres unmarked) [Compound No. 1225, 5-sec-butyl-4-methyl-6-(4-methylpiperidin-1-yl)-2-(1H-pyrazol-1-yl)pyrimidine]
pest or weed control at 500 ppm [1]: 100%
pest or weed control at 500 ppm (Erysiphe graminis): 100%
pest or weed control at 500 ppm (Septoria nodorum): 100%
